Assays:
Diplodia mutila [1] = experiment: Fungicidal activity against Diplodia mutila Q assessed as conidial germination inhibition after 48 hr; assay type: functional, organism-based; settings: pooled result: one value given for 3 cell lines, strains, targets or settings
Neofusicoccum australe [2] = experiment: Fungicidal activity against Neofusicoccum australe J-3 assessed as conidial germination inhibition after 48 hr; assay type: functional, organism-based; settings: pooled result: one value given for 3 cell lines, strains, targets or settings
Neofusicoccum luteum [3] = experiment: Fungicidal activity against Neofusicoccum luteum N(12)2 assessed as mycelial growth inhibition after 48 hr; assay type: functional, organism-based; settings: pooled result: one value given for 3 cell lines, strains, targets or settings
Neofusicoccum australe [4] = experiment: Fungicidal activity against Neofusicoccum australe J-3 assessed as mycelial growth inhibition after 48 hr; assay type: functional, organism-based; settings: pooled result: one value given for 3 cell lines, strains, targets or settings
Neofusicoccum luteum [5] = experiment: Fungicidal activity against Neofusicoccum luteum N(12)2 assessed as conidial germination inhibition after 48 hr; assay type: functional, organism-based; settings: pooled result: one value given for 3 cell lines, strains, targets or settings
Diplodia mutila [6] = experiment: Fungicidal activity against Diplodia mutila Q assessed as mycelial growth inhibition after 48 hr; assay type: functional, organism-based; settings: pooled result: one value given for 3 cell lines, strains, targets or settings
Neofusicoccum luteum [7] = experiment: Fungicidal activity against Neofusicoccum luteum infected Pinot noir grapevine assessed as dieback lesion length at 210 g AI /100 L applied 24 hr prior inoculation to pruning wound measured after 3 months; assay type: functional
Neofusicoccum luteum [8] = experiment: Fungicidal activity against Neofusicoccum luteum infected Pinot noir grapevine assessed as pathogen incidence at 210 g AI /100 L applied 24 hr prior inoculation to pruning wound measured after 3 months; assay type: functional
Neofusicoccum luteum [9] = experiment: Fungicidal activity against Neofusicoccum luteum infected Pinot noir grapevine assessed as pathogen incidence at 55 g AI /100 L applied 24 hr prior inoculation to pruning wound measured after 3 months; assay type: functional
Neofusicoccum luteum [10] = experiment: Fungicidal activity against Neofusicoccum luteum infected Pinot noir grapevine assessed as pathogen incidence at dieback sites compound applied 24 hr prior inoculation to pruning wound measured after 1 year; assay type: functional; parameters: concentration or dose not given beside the values
Neofusicoccum luteum [11] = experiment: Fungicidal activity against Neofusicoccum luteum infected Pinot noir grapevine assessed as pathogen incidence at dieback edges compound applied 24 hr prior inoculation to pruning wound measured after 1 year; assay type: functional; parameters: concentration or dose not given beside the values
Neofusicoccum luteum [12] = experiment: Fungicidal activity against Neofusicoccum luteum infected Pinot noir grapevine assessed as dieback lesion length at 55 g AI /100 L applied 24 hr prior inoculation to pruning wound measured after 3 months; assay type: functional
Neofusicoccum luteum [13] = experiment: Fungicidal activity against Neofusicoccum luteum infected Pinot noir grapevine assessed as pathogen incidence at closest side shoot compound applied 24 hr prior inoculation to pruning wound measured after 6 months; assay type: functional; parameters: concentration or dose not given beside the values
Neofusicoccum luteum [14] = experiment: Fungicidal activity against Neofusicoccum luteum infected Pinot noir grapevine assessed as mean pathogen compound applied 24 hr prior inoculation to pruning wound measured after 1 year; assay type: functional; parameters: concentration or dose not given beside the values
Neofusicoccum luteum [15] = experiment: Fungicidal activity against Neofusicoccum luteum infected Pinot noir grapevine assessed as pathogen incidence at area beyond node compound applied 24 hr prior inoculation to pruning wound measured after 1 year; assay type: functional; parameters: concentration or dose not given beside the values
Neofusicoccum luteum [16] = experiment: Fungicidal activity against Neofusicoccum luteum infected Pinot noir grapevine assessed as non-lesion areas compound applied 24 hr prior inoculation to pruning wound measured after 1 year; assay type: functional; parameters: concentration or dose not given beside the values
Neofusicoccum luteum [17] = experiment: Fungicidal activity against Neofusicoccum luteum infected Pinot noir grapevine assessed as dieback lesion length at 2.5 g AI /100 L applied 24 hr prior inoculation to pruning wound measured after 3 months; assay type: functional
Neofusicoccum luteum [18] = experiment: Fungicidal activity against Neofusicoccum luteum infected Pinot noir grapevine assessed as pathogen incidence at 2.5 g AI /100 L applied 24 hr prior inoculation to pruning wound measured after 3 months; assay type: functional
Neofusicoccum luteum [19] = experiment: Fungicidal activity against Neofusicoccum luteum infected Pinot noir grapevine assessed as dieback lesion length at 4 g AI /100 L applied 24 hr prior inoculation to pruning wound measured after 3 months; assay type: functional
Neofusicoccum luteum [20] = experiment: Fungicidal activity against Neofusicoccum luteum infected Pinot noir grapevine assessed as pathogen incidence at 4 g AI /100 L applied 24 hr prior inoculation to pruning wound measured after 3 months; assay type: functional
Neofusicoccum luteum [21] = experiment: Fungicidal activity against Neofusicoccum luteum infected Pinot noir grapevine assessed as dieback lesion length at 50 g AI /100 L applied 24 hr prior inoculation to pruning wound measured after 3 months; assay type: functional
Neofusicoccum luteum [22] = experiment: Fungicidal activity against Neofusicoccum luteum infected Pinot noir grapevine assessed as pathogen incidence at 50 g AI /100 L applied 24 hr prior inoculation to pruning wound measured after 3 months; assay type: functional
Neofusicoccum luteum [23] = experiment: Fungicidal activity against Neofusicoccum luteum infected Pinot noir grapevine assessed as dieback lesion length at 39 g AI /100 L applied 24 hr prior inoculation to pruning wound measured after 3 months; assay type: functional
Neofusicoccum luteum [24] = experiment: Fungicidal activity against Neofusicoccum luteum infected Pinot noir grapevine assessed as pathogen incidence at 39 g AI /100 L applied 24 hr prior inoculation to pruning wound measured after 3 months; assay type: functional
Neofusicoccum luteum [25] = experiment: Fungicidal activity against Neofusicoccum luteum infected Pinot noir grapevine assessed as pathogen incidence at 45 g AI /100 L applied 24 hr prior inoculation to pruning wound measured after 3 months; assay type: functional
Neofusicoccum luteum [26] = experiment: Fungicidal activity against Neofusicoccum luteum infected Pinot noir grapevine assessed as dieback lesion length at 45 g AI /100 L applied 24 hr prior inoculation to pruning wound measured after 3 months; assay type: functional
Neofusicoccum luteum [27] = experiment: Fungicidal activity against Neofusicoccum luteum infected Pinot noir grapevine assessed as dieback lesion length at 32 g AI /100 L applied 24 hr prior inoculation to pruning wound measured after 3 months; assay type: functional
Neofusicoccum luteum [28] = experiment: Fungicidal activity against Neofusicoccum luteum infected Pinot noir grapevine assessed as pathogen incidence at 32 g AI /100 L applied 24 hr prior inoculation to pruning wound measured after 3 months; assay type: functional
Neofusicoccum luteum [29] = experiment: Fungicidal activity against Neofusicoccum luteum infected Pinot noir grapevine assessed as dieback lesion length at 40 g AI /100 L applied 24 hr prior inoculation to pruning wound measured after 3 months; assay type: functional
Neofusicoccum luteum [30] = experiment: Fungicidal activity against Neofusicoccum luteum infected Pinot noir grapevine assessed as pathogen incidence at 40 g AI /100 L applied 24 hr prior inoculation to pruning wound measured after 3 months; assay type: functional
Neofusicoccum luteum [31] = experiment: Fungicidal activity against Neofusicoccum luteum infected Pinot noir grapevine assessed as dieback lesion length at 80 g AI /100 L applied 24 hr prior inoculation to pruning wound measured after 3 months; assay type: functional, organism-based
Neofusicoccum luteum [32] = experiment: Fungicidal activity against Neofusicoccum luteum infected Pinot noir grapevine assessed as pathogen incidence at 80 g AI /100 L applied 24 hr prior inoculation to pruning wound measured after 3 months; assay type: functional, organism-based

Row | Compound | EC50 (Diplodia mutila [1]) [mgAi/L] | EC50 (Neofusicoccum australe [2]) [mgAi/L] | EC50 (Neofusicoccum luteum [3]) [mgAi/L] | EC50 (Neofusicoccum australe [4]) [mgAi/L] | EC50 (Neofusicoccum luteum [5]) [mgAi/L] | EC50 (Diplodia mutila [6]) [mgAi/L] | Activity (Neofusicoccum luteum [10]) [%] | Activity (Neofusicoccum luteum [11]) [%] | Activity (Neofusicoccum luteum [13]) [%] | Activity (Neofusicoccum luteum [14]) [%] | Activity (Neofusicoccum luteum [15]) [%] | Activity (Neofusicoccum luteum [16]) [%] | other results
1 | COPPER HYDROXIDE [listing 1 of 2 here] | 4.16 | 5.68 | 77.437 | 106.83 | 8.7 | 68.64 | – | – | – | – | – | – | –
2 | N#Cc1c(Cl)c(Cl)c(Cl)c(C#N)c1Cl [CHLOROTHALONIL] | 1.35 | 10.79 | 7.873 | 3.847 | 11.15 | 0.258 | – | – | – | – | – | – | Activity (Neofusicoccum luteum [7]): 51.9 mm; Activity (Neofusicoccum luteum [8]): 30%
3 | COCC(=O)N(c1c(C)cccc1C)C(C)C(=O)OC (stereo not drawn) [METALAXYL] | 45.72 | 113.11 | 188 | 102.6 | 218.01 | 61.995 | – | – | – | – | – | – | –
4 | CC12CC1(C)C(=O)N(c1cc(Cl)cc(Cl)c1)C2=O (stereo not drawn) [PROCYMIDONE] | – | 0.01 | 0.183 | 0.23 | 0.02 | 0.227 | 70 | 40 | 7 | 27 | 0 | 20 | Activity (Neofusicoccum luteum [9]): 20%; Activity (Neofusicoccum luteum [12]): 47.8 mm
5 | OC(c1ccc(Cl)cc1)(c1cncnc1)c1ccccc1Cl (stereo not drawn) [FENARIMOL] | 0.48 | 22.5 | 0.399 | 0.58 | 7.44 | 0.076 | 77 | 40 | 0 | 27 | 0 | 20 | Activity (Neofusicoccum luteum [17]): 52.8 mm; Activity (Neofusicoccum luteum [18]): 20%
6 | C[Si](Cn1cncn1)(c1ccc(F)cc1)c1ccc(F)cc1 [FLUSILAZOLE] | 0.56 | 1.34 | 0.003 | 0.002 | 1.23 | 0.001 | 0 | 0 | 0 | 0 | 0 | 0 | Activity (Neofusicoccum luteum [19]): 41.4 mm; Activity (Neofusicoccum luteum [20]): 0%
7 | O=CNC(N1CCN(C(NC=O)C(Cl)(Cl)Cl)CC1)C(Cl)(Cl)Cl (stereo not drawn) [TRIFORINE] | 49.59 | 126.3 | 23.73 | 28.139 | 159.9 | 0.039 | – | – | – | – | – | – | –
8 | CC(C)NC(=O)N1CC(=O)N(c2cc(Cl)cc(Cl)c2)C1=O [IPRODIONE] | 0.03 | 0.05 | 0.314 | 0.273 | 0.04 | 0.247 | 83 | 53 | 3 | 34 | 0 | 30 | Activity (Neofusicoccum luteum [21]): 39.9 mm; Activity (Neofusicoccum luteum [22]): 0%
9 | N#Cc1sc2c(=O)c3ccccc3c(=O)c=2sc1C#N [DITHIANON] | 11.39 | 19.1 | 73.41 | 58.897 | 19.11 | 44.87 | – | – | – | – | – | – | Activity (Neofusicoccum luteum [23]): 49.6 mm; Activity (Neofusicoccum luteum [24]): 30%
10 | CCCN(CCOc1c(Cl)cc(Cl)cc1Cl)C(=O)n1ccnc1 [PROCHLORAZ] | 22.97 | 13.23 | 0.054 | 0.098 | 46.86 | 0.001 | 97 | 67 | 13 | 43 | 0 | 40 | Activity (Neofusicoccum luteum [25]): 70%; Activity (Neofusicoccum luteum [26]): 60.5 mm
11 | CC(C)(C)C(O)(CCc1ccc(Cl)cc1)Cn1cncn1 (stereo not drawn) [TEBUCONAZOLE] | 0.6 | 3.38 | 0.076 | 0.098 | 6.23 | 0.01 | 37 | 27 | 3 | 16 | 0 | 13 | Activity (Neofusicoccum luteum [27]): 50.2 mm; Activity (Neofusicoccum luteum [28]): 20%
12 | COC(=O)NC(=S)Nc1ccccc1NC(=S)NC(=O)OC [THIOPHANATE METHYL] | 0.29 | 5.09 | 1.237 | 1.079 | 2.41 | 0.485 | 47 | 33 | 3 | 20 | 0 | 17 | Activity (Neofusicoccum luteum [29]): 53.3 mm; Activity (Neofusicoccum luteum [30]): 30%
13 | COPPER HYDROXIDE [listing 2 of 2 here] | – | – | – | – | – | – | – | – | – | – | – | – | Activity (Neofusicoccum luteum [31]): 41.9 mm; Activity (Neofusicoccum luteum [32]): 20%

Reference: ChEMBL document CHEMBL3046815, “Evaluation of fungicides for the management of Botryosphaeria dieback diseases of grapevines” (Pest Manag Sci, 2012)
